In paper PMC6497071 (Bioorganic & medicinal chemistry letters, 2018):
Like-named read-outs stand apart in the source and are kept apart here.

Key:
[1] = system: MV4-11 leukemia cells; experiment: MV4-11 leukemia cell viability; type: cell-based, human
[2] = system: panel of 60 human tumor cell lines; conditions: against 87% of the cancer cell lines; cited from earlier work
[3] = system: CCRF-CEM; conditions: CCRF-CEM (Leukemia), five dose; cited from earlier work
[4] = system: HL-60(TB); conditions: HL-60(TB) (Leukemia), five dose; cited from earlier work
[5] = system: K-562; conditions: K-562 (Leukemia), five dose; cited from earlier work
[6] = system: MOLT-4; conditions: MOLT-4 (Leukemia), five dose; cited from earlier work
[7] = system: RPMI-8226; conditions: RPMI-8226 (Leukemia), five dose; cited from earlier work
[8] = system: SR; conditions: SR (Leukemia), five dose; cited from earlier work
[9] = system: A549/ATCC; conditions: A549/ATCC (Lung Cancer), five dose; cited from earlier work
[10] = system: HOP-62; conditions: HOP-62 (Lung Cancer), five dose; cited from earlier work
[11] = system: HOP-92; conditions: HOP-92 (Lung Cancer), five dose; cited from earlier work
[12] = system: NCI-H23; conditions: NCI-H23 (Lung Cancer), five dose; cited from earlier work
[13] = system: NCI-H522; conditions: NCI-H522 (Lung Cancer), five dose; cited from earlier work
[14] = system: COLO 205; conditions: COLO 205 (Colon Cancer), five dose; cited from earlier work
[15] = system: HCC-2998; conditions: HCC-2998 (Colon Cancer), five dose; cited from earlier work
[16] = system: HCT-116; conditions: HCT-116 (Colon Cancer), five dose; cited from earlier work
[17] = system: HCT-15; conditions: HCT-15 (Colon Cancer), five dose; cited from earlier work
[18] = system: HT29; conditions: HT29 (Colon Cancer), five dose; cited from earlier work
[19] = system: KM12; conditions: KM12 (Colon Cancer), five dose; cited from earlier work
[20] = system: SW-620; conditions: SW-620 (Colon Cancer), five dose; cited from earlier work
[21] = system: SF-268; conditions: SF-268 (CNS Cancer), five dose; cited from earlier work
[22] = system: SF-295; conditions: SF-295 (CNS Cancer), five dose; cited from earlier work
[23] = system: SF-539; conditions: SF-539 (CNS Cancer), five dose; cited from earlier work
[24] = system: SNB-19; conditions: SNB-19 (CNS Cancer), five dose; cited from earlier work
[25] = system: SNB-75; conditions: SNB-75 (CNS Cancer), five dose; cited from earlier work
[26] = system: U251; conditions: U251 (CNS Cancer), five dose; cited from earlier work
[27] = system: LOX IMVI; conditions: LOX IMVI (Melanoma), five dose; cited from earlier work
[28] = system: M14; conditions: M14 (Melanoma), five dose; cited from earlier work
[29] = system: MDA-MB-435; conditions: MDA-MB-435 (Melanoma), five dose; cited from earlier work
[30] = system: SK-MEL-2; conditions: SK-MEL-2 (Melanoma), five dose; cited from earlier work
[31] = system: SK-MEL-28; conditions: SK-MEL-28 (Melanoma), five dose; cited from earlier work
[32] = system: SK-MEL-5; conditions: SK-MEL-5 (Melanoma), five dose; cited from earlier work
[33] = system: UACC-62; conditions: UACC-62 (Melanoma), five dose; cited from earlier work
[34] = system: IGROV1; conditions: IGROV1 (Ovarian Cancer), five dose; cited from earlier work
[35] = system: OVCAR-3; conditions: OVCAR-3 (Ovarian Cancer), five dose; cited from earlier work
[36] = system: OVCAR-4; conditions: OVCAR-4 (Ovarian Cancer), five dose; cited from earlier work
[37] = system: NCI/ADR-RES; conditions: NCI/ADR-RES (Ovarian Cancer), five dose; cited from earlier work
[38] = system: SK-OV-3; conditions: SK-OV-3 (Ovarian Cancer), five dose; cited from earlier work
[39] = system: 786-0; conditions: 786-0 (Renal Cancer), five dose; cited from earlier work
[40] = system: A498; conditions: A498 (Renal Cancer), five dose; cited from earlier work
[41] = system: ACHN; conditions: ACHN (Renal Cancer), five dose; cited from earlier work
[42] = system: CAKI-1; conditions: CAKI-1 (Renal Cancer), five dose; cited from earlier work
[43] = system: UO-31; conditions: UO-31 (Renal Cancer), five dose; cited from earlier work
[44] = system: MCF7; conditions: MCF7 (Breast Cancer), five dose; cited from earlier work
[45] = system: MDA-MB-231/ATCC; conditions: MDA-MB-231/ATCC (Breast Cancer), five dose; cited from earlier work
[46] = system: HS 578T; conditions: HS 578T (Breast Cancer), five dose; cited from earlier work
[47] = system: MDA-MB-468; conditions: MDA-MB-468 (Breast Cancer), five dose; cited from earlier work
[48] = system: tubulin; experiment: tubulin polymerization cell-based immunoblot assay; conditions: immunoblot of pellet and supernatant
[49] = system: panel of 60 human tumor cell lines; experiment: NCI-60 five dose assay, whole panel summary; type: cell-based

SMILES: COc1ccc(/C=C(\C#N)c2cc(OC)c(OC)c(OC)c2)cc1O [Compound 5]
- LD50 (48h) [1]: 0.04 µM
- GI50 [2]: < 10 nM
- GI50 [3]: < 10 nM
- GI50 [4]: < 10 nM
- GI50 [5]: < 10 nM
- GI50 [6]: < 10 nM
- GI50 [7]: < 10 nM
- GI50 [8]: < 10 nM
- GI50 [9]: < 10 nM
- GI50 [10]: < 10 nM
- GI50 [11]: < 10 nM
- GI50 [12]: < 10 nM
- GI50 [13]: < 10 nM
- GI50 [14]: 2990 nM
- GI50 [15]: 20 nM
- GI50 [16]: < 10 nM
- GI50 [17]: < 10 nM
- GI50 [18]: 3180 nM
- GI50 [19]: < 10 nM
- GI50 [20]: < 10 nM
- GI50 [21]: < 10 nM
- GI50 [22]: 50 nM
- GI50 [23]: < 10 nM
- GI50 [24]: < 10 nM
- GI50 [25]: < 10 nM
- GI50 [26]: 10 nM
- GI50 [27]: < 10 nM
- GI50 [28]: < 10 nM
- GI50 [29]: < 10 nM
- GI50 [30]: < 10 nM
- GI50 [31]: 1010 nM
- GI50 [32]: < 10 nM
- GI50 [33]: < 10 nM
- GI50 [34]: < 10 nM
- GI50 [35]: < 10 nM
- GI50 [36]: < 10 nM
- GI50 [37]: < 10 nM
- GI50 [38]: 10 nM
- GI50 [39]: < 10 nM
- GI50 [40]: < 10 nM
- GI50 [41]: < 10 nM
- GI50 [42]: 30 nM
- GI50 [43]: < 10 nM
- GI50 [44]: < 10 nM
- GI50 [45]: < 10 nM
- GI50 [46]: < 10 nM
- GI50 [47]: < 10 nM

SMILES: COc1ccccc1/C=C(/c1cc(Br)cc(Br)c1)c1nnn[nH]1 [Compound 8c, (Z)-5-(1-(3,5-Dibromophenyl)-2-(2-methoxyphenyl)vinyl)-1H-tetrazole]
- LD50 (24h) [1]: 28.8 µM
- LD50 (48h) [1]: 28.6 µM

SMILES: COc1ccc(/C=C(/c2cc(OC)c(OC)c(OC)c2)c2nnn[nH]2)cc1 [Compound 8g, (Z)-5-(2-(4-Methoxyphenyl)-1-(3,4,5-trimethoxyphenyl)vinyl)-1H-tetrazole]
- LD50 (24h) [1]: 4.60 µM
- LD50 (48h) [1]: 4.29 µM
- fold less effective when compared with 8h ([1]; LD50 ratio): ~170 fold
- inhibition of tubulin polymerization ([48]; 1.0 μM and 2.0 μM): inhibited tubulin polymerization
- inhibition of tubulin polymerization ([48]; 2.0 μM): Significant inhibition

SMILES: COc1ccc(/C=C(/c2cc(OC)c(OC)c(OC)c2)c2nnn[nH]2)cc1O [Compound 8h, (Z)-5-(2-(1H-Tetrazol-5-yl)-2-(3,4,5-trimethoxyphenyl)vinyl)-2-methoxyphenol]
- LD50 (24h) [1]: 0.03 µM
- LD50 (48h) [1]: 0.02 µM
- LD50 ([1]; time not stated in text (equals 24h value of Table 4)): 30 nM
- LD50 ([1]; time not stated in text (equals 48h value of Table 4)): 20 nM
- inhibition of tubulin polymerization ([48]; 1.0 μM and 2.0 μM): inhibited tubulin polymerization
- inhibition of tubulin polymerization ([48]; 2.0 μM): Significant inhibition
- GI50 ([49]; 60 cell): < 10 nM

SMILES: COc1ccc(/C=C(/c2ccc([N+](=O)[O-])cc2)c2nnn[nH]2)c2ccccc12 [Compound 10a, (Z)-5-(2-(4-Methoxynaphthalen-1-yl)-1-(4-nitrophenyl)vinyl)-1H-tetrazole]
- LD50 (24h) [1]: 1.46 µM
- LD50 (48h) [1]: 1.39 µM
- inhibition of tubulin polymerization ([48]; 1.0 μM and 2.0 μM): inhibited tubulin polymerization
- inhibition of tubulin polymerization ([48]; 2.0 μM): Significant inhibition

SMILES: COc1ccc(/C(=C/c2ccc3ccccc3c2)c2nnn[nH]2)cc1OC [Compound 10b, (Z)-5-(1-(3,4-Dimethoxyphenyl)-2-(naphthalen-2-yl)vinyl)-1H-tetrazole]
- LD50 (24h) [1]: 1.08 µM
- LD50 (48h) [1]: 1.01 µM
- inhibition of tubulin polymerization ([48]; 1.0 μM and 2.0 μM): inhibited tubulin polymerization
- inhibition of tubulin polymerization ([48]; 2.0 μM): significantly less active
- GI50 ([49]; against more than 30% of the human cancer cell lines): < 2500 nM
- GI50 ([49]; against only 15% of the cell lines in the panel): < 2000 nM
